Legend:
A375 cells = assay: Apoptosis by cytofluorimetry after PI incorporation (subdiploid DNA content); assay type: cell-based, human; settings: 5 or 10 µM, 24-72 h
Method: (§1) The human melanoma cell lines A375 and A2058, deriving from a primary tumour or lymph nodal metastasis, respectively, were kindly provided from CEINGE (Naples, Italy). Cells were grown in DMEM supplemented with 10% FBS, 2 mM L-glutamine, 100 IU/mL penicillin G and 100 µg/mL streptomycin in humidified incubator at 37 °C under 5% CO2 atmosphere. The cell line BJ-5ta, a human skin fibroblast immortalised with the human telomerase reverse transcriptase[30] was cultured in a 4:1 mixture of DMEM and Medium 199 supplemented with 4 mM L-glutamine, 4.5 g/L glucose, 1.5 g/L sodium bicarbonate, 10% FBS, 100 IU/mL penicillin G, […] streptomycin in humidified incubator at 37 °C under 5% CO2 atmosphere. All cells were split and seeded every 3 days and used during their exponential phase of growth. Cell treatments were usually carried out after 24 h from plating.
(§2) Cytofluorimetric analysis was used to determine the number of apoptotic nuclei essentially as previously described. Briefly, cells were seeded into six-well plates at 3 × 10^5 cells/well and after 24 h were treated with 4a or 0.5% (v/v) DMSO and incubated for different times. Then, cells were harvested with trypsin, and centrifuged, and the pellets were resuspended in 200 µL of a hypotonic lysis solution containing 50 µg/mL PI. After incubation at 4 °C for 30 min, cells were analysed with a FACScan flow cytometer (Becton Dickinson, Franklin Lakes, NJ, USA) to evaluate the presence of nuclei with DNA content lower than diploid.

A2058 cells = assay: as above; assay type: cell-based, human; settings: 5 or 10 µM, 24-72 h
Method: as §1, §2

BJ-5ta cells = assay: as above; assay type: cell-based, human; settings: 10 µM, 24-, 48- or 72-h, nontumorigenic fibroblasts
Method: as §1, §2

OMFP-bound CDC25B-C473S = target: T1, OMFP-bound CDC25B-C473S (Homo sapiens, UniProt P30305, C487S); assay: Intrinsic fluorescence quenching of CDC25B-C473S in the presence of 5 µM OMFP (Stern-Volmer); assay type: binding; settings: reciprocal of KSV; presence of 5 µM OMFP; read-out: K′D of the complex, OMFP-bound CDC25B-C473S•inhibitor
T1 sequence (P30305 370-580 C487S): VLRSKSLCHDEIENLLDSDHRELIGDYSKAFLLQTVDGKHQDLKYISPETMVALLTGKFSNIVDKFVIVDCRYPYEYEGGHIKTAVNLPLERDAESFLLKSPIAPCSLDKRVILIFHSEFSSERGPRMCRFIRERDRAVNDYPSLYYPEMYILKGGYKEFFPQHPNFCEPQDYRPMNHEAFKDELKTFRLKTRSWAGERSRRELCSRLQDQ
Excerpt: The mutant form of CDC25B, carrying the C473S replacement (CDC25B-C473S), was obtained through site-directed mutagenesis of the CDC25B catalytic segment cloned in pET28a-CDC25B-cd. To this aim, the QuikChange site-directed mutagenesis kit (Stratagene, La Jolla, CA, USA) and the forward and reverse primers for C473S replacement (5′d-[…]-3′ and 5′d-[…]-3′) were used. Positive clones were obtained, and the nucleotide sequencing of the mutagenised segment excluded the presence of undesired mutations. The new vector was called pET28a-CDC25B-C473S-cd. The expression of the new vector and the purification of the recombinant form of CDC25B-C473S catalytic domain were carried out as previously reported for wild-type CDC25B catalytic domain[18], and similar yields were obtained. As expected, the mutant enzyme was unable to hydrolyse the synthetic substrate OMFP, when its activity was checked with the fluorimetric assay method previously described.
Fluorescence spectra were recorded at 20 °C using a computer-assisted Cary Eclipse spectrofluorimeter (Varian, Palo Alto, CA, USA) equipped with an electronic temperature controller. The excitation wavelength was set at 280 nm and the excitation and emission slits were set at 10 and 20 nm, respectively. A 500 µL final volume of a 0.2 µM solution of CDC25B or CDC25B-C473S dissolved in 20 mM Tris•HCl, pH 7.8, 0.5 mM TCEP was directly prepared in the fluorimetric cuvette in the absence or in the presence of OMFP and/or some NPA derivatives. Serial pre-dilutions of the NPA derivatives or OMFP at increasing concentration were prepared in DMSO or methanol, respectively. Alongside, a convenient amount of the enzyme pre-dilution was prepared just before its usage for the experiment and stored on ice. When the combined effect of NPA derivative and OMFP was investigated, two enzyme pre-dilutions were prepared in the absence or in the presence of 5 µM OMFP. In order to evaluate the specific effect produced by any addition of solvent/ligand on the intrinsic fluorescence of the enzyme, 495 µL of the enzyme pre-dilution were placed in the fluorimetric cuvette and the relative spectrum was recorded; after the addition of 5 µL of each pre-dilution of solvent/ligand and fast mixing, the spectrum was recorded again. This procedure, repeated for each experimental point, allowed a normalisation of the specific effects produced by solvent/ligands. Furthermore, a correction was also applied for the little inner-filter effect due to the absorbance at 280 nm of the NPA derivative used at different concentrations; on the other hand, no correction was necessary for OMFP. All spectra, recorded at a scan speed of 120 nm/min, were normalised and corrected.

Kd (OMFP-bound CDC25B-C473S): 32 µM
SMILES: CCOC(=O)c1cccc(Nc2cc(OC)cc3ccccc23)c1 [4a]
apoptosis (cells with a hypodiploid DNA content) (A375 cells): dose- and time-dependent increase
apoptosis (cells with a hypodiploid DNA content) (A2058 cells): dose- and time-dependent increase
apoptosis (cells with a subdiploid DNA content) (BJ-5ta cells): does not exert any apoptotic effect

— PMC7580834, “Inhibition mechanism of naphthylphenylamine derivatives acting on the CDC25B dual phosphatase and analysis of the molecular processes involved in the high cytotoxicity exerted by one selected derivative in melanoma cells” (Journal of Enzyme Inhibition and Medicinal Chemistry, 2020)
